Source: patent publication US20170159101A1, “DRUG-RESISTANT P97 ATPASE MUTATIONS” (Cleave Biosciences, Inc., priority 2014, published 2017)

Columns and labels:
Experiment in all cases: Biochemical ATPase assay, mutant p97 vs WT
[1] = molecular target: T1, p97 E470D (Homo sapiens, UniProt P55072, E470D); details: recombinant p97 with E470D mutation
T1 construct: His-tag; made in house; host or cells: E. coli B121[DE3]; (so in the source)
Protocol: (§1) Proteins were expressed in the B121[DE3] strain of E. coli and purified using His-tag mediated nickel purification and gel filtration chromatography.
(§2) ATPase activity of p97 was measured using an ATP regenerating enzymatic system that couples the conversion of phosphoenolpyruvate (PEP) to pyruvate by pyruvate kinase with ADP conversion to ATP. Pyruvate is then converted to lactate by lactate dehydrogenase, which is coupled to the conversion of NADH to NAD^+. The loss of NADH is measured by a decrease in optical absorbance as […] allowing for real-time measurement of ATPase activity. Dose titrations of a test compound were added to the p97 ATPase assay and ATPase activity was monitored. The rate of ATPase activity was fit to four-parameter sigmoidal curve to calculate IC50 of test compound. IC50 values of test compounds for wild type p97 were compared to IC50 values of mutant proteins to identify fold-changes in the potency of test compounds for mutant p97.

[2] = molecular target: T2, p97 T688A (Homo sapiens, UniProt P55072, T688A); details: recombinant p97 with T688A mutation
T2 construct: His-tag; made in house; host or cells: E. coli B121[DE3]; (so in the source)
T2 sequence (P55072 whole entry T688A): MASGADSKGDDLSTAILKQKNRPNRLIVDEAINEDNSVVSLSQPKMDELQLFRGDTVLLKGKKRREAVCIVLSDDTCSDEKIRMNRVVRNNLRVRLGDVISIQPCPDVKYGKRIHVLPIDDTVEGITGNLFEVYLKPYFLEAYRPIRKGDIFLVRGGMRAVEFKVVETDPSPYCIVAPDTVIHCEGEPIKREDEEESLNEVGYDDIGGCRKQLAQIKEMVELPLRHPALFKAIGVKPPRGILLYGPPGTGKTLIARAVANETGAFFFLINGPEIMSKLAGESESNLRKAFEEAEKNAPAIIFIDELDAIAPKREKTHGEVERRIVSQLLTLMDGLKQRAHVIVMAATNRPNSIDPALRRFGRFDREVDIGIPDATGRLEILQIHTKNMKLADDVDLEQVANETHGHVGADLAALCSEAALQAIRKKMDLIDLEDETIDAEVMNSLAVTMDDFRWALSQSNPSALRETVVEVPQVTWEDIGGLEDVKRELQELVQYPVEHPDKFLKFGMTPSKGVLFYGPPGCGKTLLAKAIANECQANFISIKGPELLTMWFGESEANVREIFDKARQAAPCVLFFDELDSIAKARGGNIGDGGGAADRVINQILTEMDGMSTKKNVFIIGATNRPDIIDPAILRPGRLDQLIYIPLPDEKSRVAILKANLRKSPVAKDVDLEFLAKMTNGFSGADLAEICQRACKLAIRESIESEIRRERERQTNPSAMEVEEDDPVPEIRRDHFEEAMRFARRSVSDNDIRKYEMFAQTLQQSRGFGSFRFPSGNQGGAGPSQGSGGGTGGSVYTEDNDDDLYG
Protocol: as §1, §2

[3] = molecular target: T3, p97 G481A (Homo sapiens, UniProt P55072, G481A); details: recombinant p97 with G481A mutation
T3 construct: His-tag; made in house; host or cells: E. coli B121[DE3]; (so in the source)
T3 sequence (P55072 whole entry G481A): as the sequence (P55072 whole entry T688A) above, with G481A, A688T counted along it
Protocol: as §1, §2

[4] = molecular target: T4, p97 Q473P (Homo sapiens, UniProt P55072, Q473P); details: recombinant p97 with Q473P mutation
T4 construct: His-tag; made in house; host or cells: E. coli B121[DE3]; (so in the source)
T4 sequence (P55072 whole entry Q473P): as the sequence (P55072 whole entry T688A) above, with Q473P, A688T counted along it
Protocol: as §1, §2

[5] = molecular target: T5, p97 D649A (Homo sapiens, UniProt P55072, D649A); details: recombinant p97 with D649A mutation
T5 construct: His-tag; made in house; host or cells: E. coli B121[DE3]; (so in the source)
T5 sequence (P55072 whole entry D649A): as the sequence (P55072 whole entry T688A) above, with D649A, A688T counted along it
Protocol: as §1, §2

[6] = molecular target: T6, p97 A659T (Homo sapiens, UniProt P55072, A659T); details: recombinant p97 with A659T mutation
T6 construct: His-tag; made in house; host or cells: E. coli B121[DE3]; (so in the source)
T6 sequence (P55072 whole entry A659T): as the sequence (P55072 whole entry T688A) above, with A659T, A688T counted along it
Protocol: as §1, §2

T1 sequence (P55072 whole entry E470D): as the sequence (P55072 whole entry T688A) above, with E470D, A688T counted along it

Fold Change in IC50 compared to WT Protein [1]: 15.4 fold
Fold Change in IC50 compared to WT Protein [2]: 363.0 fold
Fold Change in IC50 compared to WT Protein [3]: 4.1 fold
Fold Change in IC50 compared to WT Protein [4]: 0.3 fold
Fold Change in IC50 compared to WT Protein [5]: 67.0 fold
Fold Change in IC50 compared to WT Protein [6]: 110.0 fold
SMILES: COc1nc2c(C(N)=O)cccc2n1-c1nc2c(c(NCc3ccccc3)n1)CCCC2 [Compound 5, 1-[4-(benzylamino)-5,6,7,8-tetrahydroquinazolin-2-yl]-2-methoxy-1H-1,3-benzodiazole-4-carboxamide]
